Measured values from patent US8501786B2, “Hydroxymethyl pyrrolidines as beta 3 adrenergic receptor agonists” (Merck Sharp & Dohme Corp., priority 2009, dated 2013).
pEC50: −log10 of the molar value.

These compounds were tested against T1, human β3 adrenergic receptor (Homo sapiens, UniProt P13945) (assay: Functional assay: cAMP production (LANCE TR-FRET) in CHO cells stably transfected with cloned β3 adrenergic receptor). Conditions: Table 3; cAMP production, CHO cells expressing human β3 AR; read-out: Human β3 functional.
T1 construct: stably transfected with the cloned β-adrenergic receptor (β1, β2 or β3); expressed in transfected cells; host or cells: Chinese hamster ovary (CHO) cells, stably transfected
T1 sequence (P13945 whole entry): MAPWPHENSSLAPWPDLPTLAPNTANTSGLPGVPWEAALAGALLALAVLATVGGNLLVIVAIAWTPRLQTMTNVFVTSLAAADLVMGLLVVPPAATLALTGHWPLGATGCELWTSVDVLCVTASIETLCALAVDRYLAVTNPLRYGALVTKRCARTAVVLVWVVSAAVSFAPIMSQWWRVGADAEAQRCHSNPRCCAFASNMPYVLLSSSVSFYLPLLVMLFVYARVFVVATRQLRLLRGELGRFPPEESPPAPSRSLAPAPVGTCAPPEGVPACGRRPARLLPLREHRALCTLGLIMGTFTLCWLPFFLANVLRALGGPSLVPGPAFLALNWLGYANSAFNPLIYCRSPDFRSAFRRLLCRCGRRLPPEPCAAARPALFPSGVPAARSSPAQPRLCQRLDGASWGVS
Assay type: cell-based
Protocol: Functional Assay: cAMP production in response to ligand is measured according to Barton, et al. (1991, Agonist-induced desensitization of D2 dopamine receptors in human Y-79 retinoblastoma cells. Mol. Pharmacal. v3229:650-658) modified as follows, cAMP production is measured using a homogenous time-resolved fluorescence resonance energy transfer immunoassay (LANCE™, Perkin Elmer) according to the manufacture's instructions. Chinese hamster ovary (CHO) cells, stably transfected with the cloned β-adrenergic receptor (β1, β2 or β3) are harvested after 3 days of subculturing. Harvesting of cells is done with Enzyme-free Dissociation Media (Specialty Media). Cells are then counted and resuspended in assay buffer (Hank's Balanced salt solution supplemented with 5 mM HEPES, […]) containing a phosphodiesterase inhibitor (IBMX, 0.6 mM). The reaction is initiated by mixing 6,000 cells in 6 μL with 6 μL Alexa Fluor labeled cAMP antibody (LANCE™ kit) which is then added to an assay well containing 12 μL of compound (diluted in assay buffer to 2× final concentration). The reaction proceeds for 30 min at room temperature and is terminated by the addition of 24 ul detection buffer (LANCE™ kit). The assay plate is then incubated for 1 h at room temperature and time-resolved fluorescence measured on a Perkin Elmer Envision reader or equivalent. The unknown cAMP level is determined by comparing fluorescence levels to a cAMP standard curve.
The non-selective, full agonist β-adrenergic ligand isoproterenol is used at all three receptors to determine maximal stimulation. The human β3 adrenergic receptor (AR) selective ligand (S)-N-[4-[2-[[2-hydroxy-3-(4-hydroxyphenoxy)propyl]amino]ethyl]-phenyl]-4-iodobenzenesulfonamide is used as a control in all assays. Isoproterenol is titrated at a final concentration in the assay of 10^-10 M to 10-5 and the selective ligand (S)-N-[4-[2-[[2-hydroxy-3-(4-hydroxyphenoxy)propyl]amino]ethyl]phenyl]-4-iodobenzenesulfonamide is titrated at the β3 receptor at concentration of 10^-10 M to 10^-5 M. Unknown ligands are titrated at all 3 β-adrenergic receptor subtypes at a final concentration in the assay of 10^-10 M to 10^-5 M to determine the EC50. The EC50 is defined as the concentration of compound that gives 50% activation of its own maximum. Data are analyzed using Microsoft Excel and Graphpad Prism or an internally developed data analysis software package.

O=C(Cc1nc2c(s1)CCC2C(=O)Nc1ccc(CC2CC[C@H]([C@H](O)c3cccnc3)N2)cc1)NCc1ccccc1 (single isomer, unassigned) [Example 136] and O=C(O)c1nc2c(s1)CCC2C(=O)Nc1ccc(CC2CC[C@H]([C@H](O)c3cccnc3)N2)cc1 (single isomer, unassigned) [Example 137] fall in the same range of pEC50: 8.00 to 9.00 for the first, 8.00 to 9.00 for the second.

Compared with O=C(O)c1nc2c(s1)CCC2C(=O)Nc1ccc(CC2CC[C@H]([C@H](O)c3cccnc3)N2)cc1 (single isomer, unassigned) [Example 138], O=C(Nc1ccc(CC2CC[C@H]([C@H](O)c3cccnc3)N2)cc1)C1CCc2sc(F)nc21 (single isomer, unassigned) [Example 156] is higher in pEC50: 7.00 to 7.96 for the first, 8.00 to 9.00 for the second. The second is the more potent here.

First: O=C(Nc1ccc(CC2CC[C@H]([C@H](O)c3cccnc3)N2)cc1)C1CCCc2ccnn21 (single isomer, unassigned) [Example 139]
Second: O=C(Nc1ccc(CC2CC[C@H]([C@H](O)c3cccnc3)N2)cc1)C1CCc2nccc(=O)n21 (single isomer, unassigned) [Example 160]
The pEC50 of the first is lower: 6.00 to 7.00 for the first, 8.00 to 9.00 for the second.

Compared with O=C(Nc1ccc(CC2CC[C@H]([C@H](O)c3cccnc3)N2)cc1)C1CCCc2ccnn21 (single isomer, unassigned) [Example 140], O=C(Nc1ccc(CC2CC[C@H]([C@H](O)c3cccnc3)N2)cc1)C1CCc2nccc(=O)n21 (single isomer, unassigned) [Example 161] is higher in pEC50: 7.00 to 7.96 for the first, 8.00 to 9.00 for the second.

CC(C(=O)Nc1ccc(CC2CC[C@H]([C@H](O)c3cccnc3)N2)cc1)n1cncn1 (single isomer, unassigned) [Example 141] and CC(C(=O)Nc1ccc(CC2CC[C@H]([C@H](O)c3cccnc3)N2)cc1)n1ccnn1 (single isomer, unassigned) [Example 148] fall in the same range of pEC50: 8.00 to 9.00 for the first, 8.00 to 9.00 for the second.

CC(C(=O)Nc1ccc(CC2CC[C@H]([C@H](O)c3cccnc3)N2)cc1)n1nccn1 (single isomer, unassigned) [Example 142] and CC(C(=O)Nc1ccc(CC2CC[C@H]([C@H](O)c3cccnc3)N2)cc1)n1ccnn1 (single isomer, unassigned) [Example 149] fall in the same range of pEC50: 8.00 to 9.00 for the first, 8.00 to 9.00 for the second.

Compared with CC(C(=O)Nc1ccc(CC2CC[C@H]([C@H](O)c3cccnc3)N2)cc1)n1nccn1 (single isomer, unassigned) [Example 143], CC(C(=O)Nc1ccc(CC2CC[C@H]([C@H](O)c3cccnc3)N2)cc1)n1cnnn1 (single isomer, unassigned) [Example 182] is lower in pEC50: 8.00 to 9.00 for the first, 7.00 to 7.96 for the second. The first is the more potent here.

CC(C(=O)Nc1ccc(CC2CC[C@H]([C@H](O)c3cccnc3)N2)cc1)c1cnccn1 (single isomer, unassigned) [Example 144] and CC(C(=O)Nc1ccc(CC2CC[C@H]([C@H](O)c3cccnc3)N2)cc1)c1nccs1 (single isomer, unassigned) [Example 174] fall in the same range of pEC50: 8.00 to 9.00 for the first, 8.00 to 9.00 for the second.

CC(C(=O)Nc1ccc(CC2CC[C@H]([C@H](O)c3cccnc3)N2)cc1)c1cnccn1 (single isomer, unassigned) [Example 145] and CC(C(=O)Nc1ccc(CC2CC[C@H]([C@H](O)c3cccnc3)N2)cc1)c1nccs1 (single isomer, unassigned) [Example 175] fall in the same range of pEC50: 8.00 to 9.00 for the first, 8.00 to 9.00 for the second.

First: CC(F)(C(=O)Nc1ccc(CC2CC[C@H]([C@H](O)c3cccnc3)N2)cc1)c1ccccn1 (single isomer, unassigned) [Example 146]
Second: CC(C(=O)Nc1ccc(CC2CC[C@H]([C@H](O)c3cccnc3)N2)cc1)n1cccnc1=O (single isomer, unassigned) [Example 166]
The pEC50 of the first is lower: 7.00 to 7.96 for the first, 8.00 to 9.00 for the second.

First: CC(F)(C(=O)Nc1ccc(CC2CC[C@H]([C@H](O)c3cccnc3)N2)cc1)c1ccccn1 (single isomer, unassigned) [Example 147]
Second: CC(C(=O)Nc1ccc(C[C@@H]2CC[C@H]([C@H](O)c3cccnc3)N2)cc1)n1cccnc1=O (single isomer, unassigned) [Example 167]
The pEC50 of the first is lower: 6.00 to 7.00 for the first, 8.00 to 9.00 for the second. The second is the more potent here.

COC(=O)c1cn(C(C)C(=O)Nc2ccc(CC3CC[C@H]([C@H](O)c4cccnc4)N3)cc2)nn1 (single isomer, unassigned) [Example 150] and CC(C(=O)Nc1ccc(CC2CC[C@H]([C@H](O)c3cccnc3)N2)cc1)n1cnnn1 (single isomer, unassigned) [Example 183] fall in the same range of pEC50: 8.00 to 9.00 for the first, 8.00 to 9.00 for the second.

COC(=O)c1cn(C(C)C(=O)Nc2ccc(CC3CC[C@H]([C@H](O)c4cccnc4)N3)cc2)nn1 (single isomer, unassigned) [Example 151] and CC(C(=O)Nc1ccc(CC2CC[C@H]([C@H](O)c3cccnc3)N2)cc1)c1nnn(C)n1 (single isomer, unassigned) [Example 180] fall in the same range of pEC50: 7.00 to 7.96 for the first, 7.00 to 7.96 for the second.

First: Cc1nnc(C(C)C(=O)Nc2ccc(CC3CC[C@H]([C@H](O)c4cccnc4)N3)cc2)[nH]1 (single isomer, unassigned) [Example 152]
Second: Cc1cc(C(C)C(=O)Nc2ccc(CC3CC[C@H]([C@H](O)c4cccnc4)N3)cc2)[nH]n1 (single isomer, unassigned) [Example 176]
The pEC50 of the first is higher: 8.00 to 9.00 for the first, 7.00 to 7.96 for the second.

First: Cc1nnc(C(C)C(=O)Nc2ccc(CC3CC[C@H]([C@H](O)c4cccnc4)N3)cc2)[nH]1 (single isomer, unassigned) [Example 153]
Second: Cc1cc(C(C)C(=O)Nc2ccc(CC3CC[C@H]([C@H](O)c4cccnc4)N3)cc2)[nH]n1 (single isomer, unassigned) [Example 177]
The pEC50 of the first is higher: 7.00 to 7.96 for the first, 6.00 to 7.00 for the second. The first is the more potent here.

Cc1[nH]nc2c1CCC2C(=O)Nc1ccc(CC2CC[C@H]([C@H](O)c3cccnc3)N2)cc1 (single isomer, unassigned) [Example 154] and Cc1noc2c1CCC2C(=O)Nc1ccc(CC2CC[C@H]([C@H](O)c3cccnc3)N2)cc1 (single isomer, unassigned) [Example 168] fall in the same range of pEC50: 8.00 to 9.00 for the first, 8.00 to 9.00 for the second.

Cc1[nH]nc2c1CCC2C(=O)Nc1ccc(CC2CC[C@H]([C@H](O)c3cccnc3)N2)cc1 (single isomer, unassigned) [Example 155] and Cc1noc2c1CCC2C(=O)Nc1ccc(CC2CC[C@H]([C@H](O)c3cccnc3)N2)cc1 (single isomer, unassigned) [Example 169] fall in the same range of pEC50: 7.00 to 7.96 for the first, 7.00 to 7.96 for the second.

First: O=C(Nc1ccc(CC2CC[C@H]([C@H](O)c3cccnc3)N2)cc1)C1CCc2sc(F)nc21 (single isomer, unassigned) [Example 157]
Second: O=C(Nc1ccc(CC2CC[C@H]([C@H](O)c3cccnc3)N2)cc1)C1CCc2sc(Br)nc21 (single isomer, unassigned) [Example 158]
The pEC50 of the first is lower: 8.00 to 9.00 for the first, greater than 9.00 for the second.

O=C(Nc1ccc(CC2CC[C@H]([C@H](O)c3cccnc3)N2)cc1)C1CCc2sc(Br)nc21 (single isomer, unassigned) [Example 159] and Cc1nnc2n1CCC2C(=O)Nc1ccc(CC2CC[C@H]([C@H](O)c3cccnc3)N2)cc1 (single isomer, unassigned) [Example 170] fall in the same range of pEC50: 7.00 to 7.96 for the first, 7.00 to 7.96 for the second.

CC(C(=O)Nc1ccc(CC2CC[C@H]([C@H](O)c3cccnc3)N2)cc1)n1ncccc1=O (single isomer, unassigned) [Example 162] and CC(C(=O)Nc1ccc(C[C@@H]2CC[C@H]([C@H](O)c3cccnc3)N2)cc1)n1ncccc1=O (single isomer, unassigned) [Example 163] fall in the same range of pEC50: 8.00 to 9.00 for the first, 8.00 to 9.00 for the second.

CC(C(=O)Nc1ccc(CC2CC[C@H]([C@H](O)c3cccnc3)N2)cc1)n1cnccc1=O (single isomer, unassigned) [Example 164] and CC(C(=O)Nc1ccc(CC2CC[C@H]([C@H](O)c3cccnc3)N2)cc1)c1ccn[nH]1 (single isomer, unassigned) [Example 178] fall in the same range of pEC50: 8.00 to 9.00 for the first, 8.00 to 9.00 for the second.

Compared with CC(C(=O)Nc1ccc(CC2CC[C@H]([C@H](O)c3cccnc3)N2)cc1)n1cnccc1=O (single isomer, unassigned) [Example 165], CC(C(=O)Nc1ccc(CC2CC[C@H]([C@H](O)c3cccnc3)N2)cc1)c1ccn[nH]1 (single isomer, unassigned) [Example 179] is lower in pEC50: 8.00 to 9.00 for the first, 7.00 to 7.96 for the second.

Cc1nnc2n1CCC2C(=O)Nc1ccc(CC2CC[C@H]([C@H](O)c3cccnc3)N2)cc1 (single isomer, unassigned) [Example 171] and CC(C(=O)Nc1ccc(CC2CC[C@H]([C@H](O)c3cccnc3)N2)cc1)c1nnn(C)n1 (single isomer, unassigned) [Example 181] fall in the same range of pEC50: 7.00 to 7.96 for the first, 7.00 to 7.96 for the second.

Compound CCC(C(=O)Nc1ccc(CC2CC[C@H]([C@H](O)c3cccnc3)N2)cc1)n1cccn1 (single isomer, unassigned) [Example 184] has a pEC50 of 8.00 to 9.00.
